Source: patent US7470702B2, “Benzimidazoles” (Merck Patent GmbH, priority 2003, dated 2008)

Molecular target: TIE-2 (Homo sapiens, UniProt Q02763)
Assay: Inhibition of TIE-2 (flashplate kinase assay, poly(Glu, Tyr) phosphorylation, 33P-ATP)
Type: biochemical
Method: The TIE-2 tests can be carried out, for example, analogously to the methods indicated in WO 02/44156.
The assay determines the inhibiting activity of the substances to be tested in the phosphorylation of the substrate poly(Glu, Tyr) by Tie-2 kinase in the presence of radioactive ^33P-ATP. The phosphorylated substrate binds to the surface of a “flashplate” microtitre plate during the incubation time. After removal of the reaction mixture, the microtitre plate is washed a number of times and the radioactivity on its surface is subsequently measured. An inhibiting effect of the substances to be measured results in lower radioactivity compared with an undisturbed enzymatic reaction.

Chain of TIE-2 (Q02763 23-1124, species assumed): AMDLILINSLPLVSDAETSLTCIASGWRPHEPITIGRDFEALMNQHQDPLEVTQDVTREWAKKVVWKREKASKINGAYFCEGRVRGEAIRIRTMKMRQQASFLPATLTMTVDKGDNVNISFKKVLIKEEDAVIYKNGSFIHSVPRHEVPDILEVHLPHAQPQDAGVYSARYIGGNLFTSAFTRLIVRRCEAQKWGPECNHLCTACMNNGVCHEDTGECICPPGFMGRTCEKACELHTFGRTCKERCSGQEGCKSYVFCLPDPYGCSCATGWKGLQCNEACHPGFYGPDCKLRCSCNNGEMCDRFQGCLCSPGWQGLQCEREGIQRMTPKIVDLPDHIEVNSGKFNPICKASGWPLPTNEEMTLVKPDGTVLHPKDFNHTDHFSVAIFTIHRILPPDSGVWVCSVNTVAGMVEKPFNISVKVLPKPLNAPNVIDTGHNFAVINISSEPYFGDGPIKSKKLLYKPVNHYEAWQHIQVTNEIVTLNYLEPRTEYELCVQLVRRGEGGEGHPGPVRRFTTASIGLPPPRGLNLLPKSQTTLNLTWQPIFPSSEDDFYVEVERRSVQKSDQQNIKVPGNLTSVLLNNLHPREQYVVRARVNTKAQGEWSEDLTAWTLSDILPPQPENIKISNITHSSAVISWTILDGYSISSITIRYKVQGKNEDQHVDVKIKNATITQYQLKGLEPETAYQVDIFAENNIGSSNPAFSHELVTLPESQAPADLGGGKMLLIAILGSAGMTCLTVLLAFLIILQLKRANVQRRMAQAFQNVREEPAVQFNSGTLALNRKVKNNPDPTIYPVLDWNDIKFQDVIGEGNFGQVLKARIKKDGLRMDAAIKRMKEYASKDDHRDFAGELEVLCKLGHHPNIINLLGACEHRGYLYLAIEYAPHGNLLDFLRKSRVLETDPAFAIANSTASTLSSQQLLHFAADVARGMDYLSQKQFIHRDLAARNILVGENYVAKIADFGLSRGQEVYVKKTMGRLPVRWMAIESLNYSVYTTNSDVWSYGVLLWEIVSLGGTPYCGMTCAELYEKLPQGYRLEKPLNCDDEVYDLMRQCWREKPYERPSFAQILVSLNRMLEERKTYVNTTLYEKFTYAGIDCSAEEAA

IC50 [nM]	Compound
4000	Cc1ccc2nc(Nc3ccc(Oc4ccncc4)cc3)[nH]c2c1 [(3), (6-Methyl-1H-benzimidazol-2-yl)[4-(pyridin-4-yloxy)phenyl]amine]
500	FC(F)(F)c1cc(Br)c2nc(Nc3ccc(Oc4ccncc4)cc3)[nH]c2c1 [(5), (4-Bromo-6-trifluoromethyl-1H-benzimidazol-2-yl)[4-(pyridin-4-yloxy)phenyl]amine]
900	FC(F)(F)c1cc(Cl)c2nc(Nc3ccc(Oc4ccncc4)cc3)[nH]c2c1 [(14), (4-Chloro-6-trifluoromethyl-1H-benzimidazol-2-yl)[4-(pyridin-4-yloxy)phenyl]amine]
